Measurements published in ChEMBL document CHEMBL2440076, “New triarylpyrazoles as broad-spectrum anticancer agents: design, synthesis, and biological evaluation” (Eur J Med Chem, 2013).

What was measured:
[1] = test system: SF-295; test: Growth inhibition of human SF295 cells assessed as cell growth at 5X10'-6 M after 48 hrs by sulforhodamine B assay; format: functional; conditions: SF-295, 48 h, read-out: Activity
[2] = test system: 786-0; test: Growth inhibition of human 786-0 cells assessed as cell growth at 5X10'-5 M after 48 hrs by sulforhodamine B assay; format: functional; conditions: 786-0, 48 h, read-out: Activity
[3] = test system: HCT-116; test: Growth inhibition of human HCT116 cells assessed as cell growth at 5X10'-7 M after 48 hrs by sulforhodamine B assay; format: functional; conditions: HCT-116, 48 h, read-out: Activity
[4] = test system: LOX IMVI; test: Growth inhibition of human LOXIMVI cells assessed as cell growth at 5X10'-7 M after 48 hrs by sulforhodamine B assay; format: functional; conditions: read-out: Activity
[5] = test system: SK-OV-3; test: Growth inhibition of human SKOV3 cells assessed as cell growth at 5X10'-5 M after 48 hrs by sulforhodamine B assay; format: functional; conditions: SK-OV-3, 48 h, read-out: Activity
[6] = test system: UACC-62; test: Growth inhibition of human UACC62 cells assessed as cell growth at 5X10'-6 M after 48 hrs by sulforhodamine B assay; format: functional; conditions: UACC-62, 48 h, read-out: Activity
[7] = test system: HOP-92; test: Growth inhibition of human HOP92 cells assessed as cell growth at 5X10'-9 M after 48 hrs by sulforhodamine B assay; format: functional; conditions: HOP-92, 48 h, read-out: Activity
[8] = test system: OVCAR-3; test: Growth inhibition of human OVCAR3 cells assessed as cell growth at 5X10'-9 M after 48 hrs by sulforhodamine B assay; format: functional; conditions: OVCAR-3, 48 h, read-out: Activity
[9] = test system: NCI-H522; test: Growth inhibition of human NCI-H522 cells assessed as cell growth at 10 uM after 48 hrs by sulforhodamine B assay; format: functional; conditions: NCI-H522, 48 h, read-out: Activity
[10] = test system: OVCAR-3; test: Growth inhibition of human OVCAR3 cells assessed as cell growth at 10 uM after 48 hrs by sulforhodamine B assay; format: functional; conditions: OVCAR-3, 48 h, read-out: Activity
[11] = test system: KM12; test: Growth inhibition of human KM12 cells assessed as cell growth at 5X10'-9 M after 48 hrs by sulforhodamine B assay; format: functional; conditions: KM12, 48 h, read-out: Activity
[12] = test system: SK-MEL-2; test: Growth inhibition of human SK-MEL-2 cells after 48 hrs by sulforhodamine B assay; format: functional; conditions: SK-MEL-2, 48 h
[13] = test system: SNB-75; test: Growth inhibition of human SNB75 cells assessed as cell growth at 5X10'-9 M after 48 hrs by sulforhodamine B assay; format: functional; conditions: SNB-75, 48 h, read-out: Activity
[14] = test system: HL-60(TB); test: Growth inhibition of human HL-60(TB) cells assessed as cell growth at 5X10'-6 M after 48 hrs by sulforhodamine B assay; format: functional; conditions: HL-60, 48 h, read-out: Activity
[15] = test system: SN12C; test: Growth inhibition of human SN12C cells assessed as cell growth at 5X10'-8 M after 48 hrs by sulforhodamine B assay; format: functional; conditions: read-out: Activity
[16] = test system: SNB-75; test: Growth inhibition of human SNB75 cells after 48 hrs by sulforhodamine B assay; format: functional; conditions: SNB-75, 48 h
[17] = test system: SF-539; test: Growth inhibition of human SF539 cells after 48 hrs by sulforhodamine B assay; format: functional; conditions: SF-539, 48 h
[18] = test system: MDA-MB-231; test: Growth inhibition of human MDA-MB-231 cells assessed as cell growth at 5X10'-7 M after 48 hrs by sulforhodamine B assay; format: functional; conditions: MDA-MB-231, 48 h, read-out: Activity
[19] = test system: KM12; test: Growth inhibition of human KM12 cells assessed as cell growth at 10 uM after 48 hrs by sulforhodamine B assay; format: functional; conditions: KM12, 48 h, read-out: Activity
[20] = test system: OVCAR-4; test: Growth inhibition of human OVCAR4 cells after 48 hrs by sulforhodamine B assay; format: functional; conditions: OVCAR-4, 48 h
[21] = test system: SK-MEL-5; test: Growth inhibition of human SK-MEL-5 cells assessed as cell growth at 5X10'-9 M after 48 hrs by sulforhodamine B assay; format: functional; conditions: SK-MEL-5, 48 h, read-out: Activity
[22] = test system: CCRF-CEM; test: Growth inhibition of human CCRF-CEM cells assessed as cell growth at 5X10'-9 M after 48 hrs by sulforhodamine B assay; format: functional; conditions: read-out: Activity
[23] = test system: MDA-MB-468; test: Growth inhibition of human MDA-MB-468 cells assessed as cell growth at 5X10'-7 M after 48 hrs by sulforhodamine B assay; format: functional; conditions: MDA-MB-468, 48 h, read-out: Activity
[24] = test system: HT-29; test: Growth inhibition of human HT-29 cells assessed as cell growth at 5X10'-6 M after 48 hrs by sulforhodamine B assay; format: functional; conditions: HT-29, 48 h, read-out: Activity
[25] = test system: U-251; test: Growth inhibition of human U251 cells after 48 hrs by sulforhodamine B assay; format: functional; conditions: U-251, 48 h
[26] = test system: MDA-MB-468; test: Growth inhibition of human MDA-MB-468 cells after 48 hrs by sulforhodamine B assay; format: functional, cell-based; conditions: MDA-MB-468, 48 h; for CC50: read-out: LC50 (the source's name)
[27] = test system: NCI-H226; test: Growth inhibition of human NCI-H226 cells assessed as cell growth at 10 uM after 48 hrs by sulforhodamine B assay; format: functional; conditions: NCI-H226, 48 h, read-out: Activity
[28] = test system: HT-29; test: Growth inhibition of human HT-29 cells assessed as cell growth at 5X10'-7 M after 48 hrs by sulforhodamine B assay; format: functional; conditions: HT-29, 48 h, read-out: Activity
[29] = test system: K562; test: Growth inhibition of human K562 cells assessed as cell growth at 5X10'-8 M after 48 hrs by sulforhodamine B assay; format: functional; conditions: K562, 48 h, read-out: Activity
[30] = test system: K562; test: Growth inhibition of human K562 cells assessed as cell growth at 5X10'-9 M after 48 hrs by sulforhodamine B assay; format: functional; conditions: K562, 48 h, read-out: Activity
[31] = test system: SR; test: Growth inhibition of human SR cells assessed as cell growth at 5X10'-8 M after 48 hrs by sulforhodamine B assay; format: functional; conditions: read-out: Activity
[32] = test system: SK-MEL-5; test: Growth inhibition of human SK-MEL-5 cells assessed as cell growth at 10 uM after 48 hrs by sulforhodamine B assay; format: functional; conditions: SK-MEL-5, 48 h, read-out: Activity
[33] = test system: SF-268; test: Growth inhibition of human SF268 cells after 48 hrs by sulforhodamine B assay; format: functional; conditions: SF-268, 48 h; for CC50: read-out: LC50 (the source's name)
[34] = test system: MDA-MB-231; test: Growth inhibition of human MDA-MB-231 cells assessed as cell growth at 5X10'-9 M after 48 hrs by sulforhodamine B assay; format: functional; conditions: MDA-MB-231, 48 h, read-out: Activity
[35] = test system: SF-539; test: Growth inhibition of human SF539 cells assessed as cell growth at 5X10'-5 M after 48 hrs by sulforhodamine B assay; format: functional; conditions: SF-539, 48 h, read-out: Activity
[36] = test system: ACHN; test: Growth inhibition of human ACHN cells assessed as cell growth at 5X10'-8 M after 48 hrs by sulforhodamine B assay; format: functional; conditions: read-out: Activity

## COc1cc(-c2nn(-c3cccc(NC(=O)Nc4ccc(Cl)c(Cl)c4)c3)cc2-c2ccncc2)ccc1Cl
[1]
  growth at 5 µM: -26%
[2]
  growth at 50 µM: -20%
[3]
  growth at 0.5 µM: 78%
[4]
  growth at 0.5 µM: 82%
[5]
  growth at 50 µM: 6%
[6]
  growth at 5 µM: -56%
[7]
  growth at 0.005 µM: 75%
[8]
  growth at 0.005 µM: 104%
[9]
  growth at 10 µM: -14.7%
[10]
  growth at 10 µM: -10%
[11]
  growth at 0.005 µM: 103%
[12]
  GI50: 1140 nM
  LC50 (50% lethal concentration): 4850 nM
  TGI: 2350 nM
[13]
  growth at 0.005 µM: 86%
[14]
  growth at 5 µM: 6%
[15]
  growth at 0.05 µM: 94%
[16]
  GI50: 1050 nM
  LC50 (lethal concentration, 50% net cell kill): > 50000 nM
  TGI: 5170 nM
[17]
  GI50: 965 nM
  LC50 (concentration killing 50% of cells): > 50000 nM
  TGI: 3080 nM
[18]
  growth at 0.5 µM: 66%
[19]
  growth at 10 µM: 1.3%
[20]
  GI50: 1290 nM
  LC50 (concentration killing 50% of cells): > 50000 nM
  TGI: > 50000 nM
[21]
  growth at 0.005 µM: 98%
[22]
  growth at 0.005 µM: 101%
[23]
  growth at 0.5 µM: 55%
[24]
  growth at 5 µM: 2%
[25]
  GI50: 820 nM
  LC50 (concentration killing 50% of cells): > 50000 nM
  TGI: 2470 nM
[26]
  GI50: 567 nM
  IC50: 570 nM
  TGI: 2270 nM
  CC50: > 50000 nM
[27]
  growth at 10 µM: 9.61%
[28]
  growth at 0.5 µM: 81%
[29]
  growth at 0.05 µM: 103%
[30]
  growth at 0.005 µM: 103%
[31]
  growth at 0.05 µM: 105%
[32]
  growth at 10 µM: -80%
[33]
  GI50: 1510 nM
  TGI: 20300 nM
  CC50: > 50000 nM
[34]
  growth at 0.005 µM: 92%
[35]
  growth at 50 µM: -37%
[36]
  growth at 0.05 µM: 98%

## COc1cc(-c2nn(-c3cccc(NC(=O)Nc4cccc(C(F)(F)F)c4)c3)cc2-c2ccncc2)ccc1Cl
[1]
  growth at 5 µM: -71%
[2]
  growth at 50 µM: -22%
[3]
  growth at 0.5 µM: 66%
[4]
  growth at 0.5 µM: 81%
[5]
  growth at 50 µM: 2%
[6]
  growth at 5 µM: -73%
[7]
  growth at 0.005 µM: 93%
[8]
  growth at 0.005 µM: 108%
[9]
  growth at 10 µM: -30.8%
[10]
  growth at 10 µM: -42%
[11]
  growth at 0.005 µM: 104%
[12]
  GI50: 970 nM
  LC50 (50% lethal concentration): 3960 nM
  TGI: 1960 nM
[13]
  growth at 0.005 µM: 92%
[14]
  growth at 5 µM: 4%
[15]
  growth at 0.05 µM: 97%
[16]
  GI50: 1160 nM
  LC50 (lethal concentration, 50% net cell kill): 50000 nM
  TGI: 4500 nM
[17]
  GI50: 890 nM
  LC50 (concentration killing 50% of cells): 21000 nM
  TGI: 2420 nM
[18]
  growth at 0.5 µM: 73%
[19]
  growth at 10 µM: -27.8%
[20]
  GI50: 1100 nM
  LC50 (concentration killing 50% of cells): > 50000 nM
  TGI: 2100 nM
[21]
  growth at 0.005 µM: 99%
[22]
  growth at 0.005 µM: 104%
[23]
  growth at 0.5 µM: 57%
[24]
  growth at 5 µM: -54%
[25]
  GI50: 645 nM
  LC50 (concentration killing 50% of cells): 2920 nM
  TGI: 1370 nM
[26]
  GI50: 598 nM
  IC50: 600 nM
  TGI: 2160 nM
  CC50: 50000 nM
[27]
  growth at 10 µM: 4.3%
[28]
  growth at 0.5 µM: 72%
[29]
  growth at 0.05 µM: 95%
[30]
  growth at 0.005 µM: 99%
[31]
  growth at 0.05 µM: 93%
[32]
  growth at 10 µM: -97.8%
[33]
  GI50: 1360 nM
  TGI: 5430 nM
  CC50: 50000 nM
[34]
  growth at 0.005 µM: 103%
[35]
  growth at 50 µM: -58%
[36]
  growth at 0.05 µM: 97%
